The source of these data is patent US20220401383A1 (SHINKEI THERAPEUTICS, INC., priority 2019, published 2022).

Structures are written as SMILES. Where two headings read alike, the source gives them in different places.

Data set [1] has as its system CBD metabolism in human liver microsomes (CYP3A4 and CYP2C19). The experiment in a line: in vitro.
Data set [2] has as its target CYP2D6 (Homo sapiens, UniProt P10635). The data set can be described thus: biochemical.
Protocol: Incubation mixtures were prepared with the following:
(a) potassium phosphate buffer;
(b) 0.1 mg/mL microsomal protein;
(c) isoform-specific probe substrates;
(d) specific concentrations of the test compounds, blank solvent, or positive controls (isoform-specific inhibitors); and
(e) an NADPH-regenerating cofactor solution.
Upon completion of the incubation, the reactions were quenched with an acetonitrile solution containing an internal standard. The samples were processed and analyzed by LC-MS/MS to monitor for substrate metabolite formation. The enzyme activity in the presence of the compounds were normalized with the enzyme activity in the absence of the compounds and expressed as a percentage of activity. The inhibitory potential (IC50) of the compounds were determined using nonlinear regression of percentage of activity versus compound concentration.
The test system of data set [3] is CBD metabolism in human liver microsomes. The data set can be described thus: Example 1: inhibition of CBD metabolism in pooled human liver microsomes. The following applies: for Inhibition of CBD metabolism (in words): human liver microsomes; for IC50: read-out: HLM CYP inhibition IC50, substrate CBD, pooled HLM 0.1 mg/mL, CBD 1.64 μM, 15 minutes, n = 1. For orientation: Microsomes from liver hold many membrane-bound enzymes, among them those of drug oxidation.

Data set [4] addresses T1, CYP2C19 (Homo sapiens, UniProt P33261).
Data set [5] concerns the target T2, CYP1A2 (Homo sapiens, UniProt P05177).
T2 sequence (P05177 1-516): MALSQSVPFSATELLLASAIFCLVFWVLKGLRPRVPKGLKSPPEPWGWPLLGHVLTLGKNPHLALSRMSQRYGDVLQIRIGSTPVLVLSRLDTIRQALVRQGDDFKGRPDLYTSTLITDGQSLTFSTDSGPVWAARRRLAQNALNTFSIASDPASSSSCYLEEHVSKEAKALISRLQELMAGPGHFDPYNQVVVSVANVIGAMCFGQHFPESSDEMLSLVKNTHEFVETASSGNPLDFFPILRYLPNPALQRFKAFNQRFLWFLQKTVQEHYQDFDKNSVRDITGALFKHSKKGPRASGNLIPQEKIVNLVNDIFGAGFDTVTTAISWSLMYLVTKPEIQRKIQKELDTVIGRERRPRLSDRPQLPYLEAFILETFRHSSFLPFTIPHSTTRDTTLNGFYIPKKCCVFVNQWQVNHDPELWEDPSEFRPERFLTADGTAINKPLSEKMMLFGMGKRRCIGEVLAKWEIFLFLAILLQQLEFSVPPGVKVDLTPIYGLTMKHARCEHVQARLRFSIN
The following applies: cited from earlier work.

In data set [6] the target is T3, CYP2C8 (Homo sapiens, UniProt P10632).
T3 sequence (P10632 1-490): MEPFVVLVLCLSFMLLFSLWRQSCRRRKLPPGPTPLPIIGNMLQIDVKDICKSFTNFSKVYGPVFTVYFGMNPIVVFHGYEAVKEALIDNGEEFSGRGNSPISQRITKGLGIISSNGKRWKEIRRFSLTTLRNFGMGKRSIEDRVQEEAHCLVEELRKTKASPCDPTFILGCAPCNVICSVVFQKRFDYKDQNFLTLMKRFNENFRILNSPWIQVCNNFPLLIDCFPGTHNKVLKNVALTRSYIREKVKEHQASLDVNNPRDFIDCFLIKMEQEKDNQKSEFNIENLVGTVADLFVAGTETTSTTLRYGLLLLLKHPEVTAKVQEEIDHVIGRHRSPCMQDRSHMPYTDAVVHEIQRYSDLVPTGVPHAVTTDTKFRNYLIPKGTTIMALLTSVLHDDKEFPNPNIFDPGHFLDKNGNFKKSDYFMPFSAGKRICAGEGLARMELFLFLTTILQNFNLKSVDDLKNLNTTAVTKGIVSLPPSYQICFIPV
As to conditions: cited from earlier work.

Data set [7] has as its target T1, CYP2C19. The following applies: cited from earlier work.
Data set [8] concerns Maximum Electroconvulsive Shock (MES) model. As to conditions: MES model in mouse; cited from earlier work.
The conditions of data set [9]: cited from earlier work.
The conditions of data set [10]: cited from earlier work. The source holds these as a separate data set.
Data set [11] in a line: Clinical pharmacokinetics (literature data). As to conditions: human, in vivo, oral.

T1 sequence (P33261 whole entry): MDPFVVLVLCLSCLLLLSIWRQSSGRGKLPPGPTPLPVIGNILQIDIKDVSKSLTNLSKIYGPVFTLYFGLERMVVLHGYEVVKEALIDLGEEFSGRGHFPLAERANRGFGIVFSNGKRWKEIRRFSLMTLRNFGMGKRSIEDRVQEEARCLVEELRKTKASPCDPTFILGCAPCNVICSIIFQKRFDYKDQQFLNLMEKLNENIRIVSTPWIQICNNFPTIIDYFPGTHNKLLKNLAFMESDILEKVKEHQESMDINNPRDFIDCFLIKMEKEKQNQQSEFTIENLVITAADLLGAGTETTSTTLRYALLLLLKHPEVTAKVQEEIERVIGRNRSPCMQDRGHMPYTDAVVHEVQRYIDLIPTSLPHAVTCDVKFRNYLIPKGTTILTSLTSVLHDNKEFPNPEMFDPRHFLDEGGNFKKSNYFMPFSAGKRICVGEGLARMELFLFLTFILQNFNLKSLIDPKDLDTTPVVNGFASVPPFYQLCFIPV
Chain of CYP2D6 (P10635 whole entry): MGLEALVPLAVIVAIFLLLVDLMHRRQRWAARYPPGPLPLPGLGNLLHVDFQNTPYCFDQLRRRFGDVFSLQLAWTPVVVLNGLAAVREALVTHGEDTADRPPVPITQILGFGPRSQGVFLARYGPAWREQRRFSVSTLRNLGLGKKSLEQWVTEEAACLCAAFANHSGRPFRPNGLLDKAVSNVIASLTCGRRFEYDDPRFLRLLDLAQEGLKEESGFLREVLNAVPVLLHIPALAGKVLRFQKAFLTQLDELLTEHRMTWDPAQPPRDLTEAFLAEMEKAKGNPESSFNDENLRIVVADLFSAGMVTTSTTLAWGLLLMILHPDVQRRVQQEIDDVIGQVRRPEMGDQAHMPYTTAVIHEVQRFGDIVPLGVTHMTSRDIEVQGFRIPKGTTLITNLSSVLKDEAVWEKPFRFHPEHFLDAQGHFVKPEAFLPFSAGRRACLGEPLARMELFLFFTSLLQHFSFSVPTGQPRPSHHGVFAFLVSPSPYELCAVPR

Consider `CC(C)=CCC/C(C)=C/COc1c2ccoc2cc2oc(=O)ccc12` [Bergamottin], for which the IC50 (commonly the midpoint of a concentration-inhibition curve) at 15 min in data set [1] is > 33 µM.

For the compound `CC(C)c1nc(CN(C)C(=O)N[C@@H](CCN2CCOCC2)C(=O)N[C@H](CC[C@H](Cc2ccccc2)NC(=O)OCc2cncs2)Cc2ccccc2)cs1` [Cobicistat], the IC50 in [2] was 0.479 µM; in [4] it was 0.331 µM; in data set [5], > 25 µM; in data set [6], > 25 µM; in data set [7], > 25 µM. The “Inhibition of CBD metabolism (in words)” value in data set [3] is “strong inhibitor of CBD metabolism”.

As for `C=C(C)[C@@H]1CCC(CO)=C[C@H]1c1c(O)cc(CCCCC)cc1O` [7-OH-CBD], the Anticonvulsant effect result in [8] was “anticonvulsant effect similar to CBD”.

As for `C/C(=C\COc1c2ccoc2cc2oc(=O)ccc12)CCC(O)C(C)(C)O` (stereo not drawn) [6,7-dihydroxybergamottin], in data set [3], the “Inhibition of CBD metabolism (in words)” value is listed as “effective inhibitors of CBD metabolism” and the 50% inhibitory concentration (IC50) is 23.3 µM.

Turning to `CNCCC(Oc1ccc(C(F)(F)F)cc1)c1ccccc1` (stereo not drawn) [Fluoxetine], the “Inhibition of CBD metabolism (in words)” value in data set [3] was “unable to inhibit metabolism of CBD”. Also, the concentration for half-maximal inhibition (IC50) at 15 min in [1] is > 33 µM.

Consider `C=C(C)[C@@H]1CCC(C(=O)O)=C[C@H]1c1c(O)cc(CCCCC)cc1O` [7-COOH-CBD], for which the Anticonvulsant effect entry in data set [8] was “inactive”. Moreover, in data set [9] (after 1500 mg CBD dose), the “Concentration of metabolite relative to CBD” value is reported as 47 fold and the “Share of the total drug material measured in systemic circulation” value is 97%.

For `C=C(C)[C@@H]1CCC(C)=C[C@H]1c1c(O)cc(CCCCC)cc1O` [CBD, cannabidiol], the “Log P (partition coefficient)” value in [10] was 6.1. Moreover, the “Share of the total drug material measured in systemic circulation” value in data set [9] (after 1500 mg CBD dose) is 2%. Moreover, the “CBD AUC” value in [9] (single dose 200 mg) is 499 ng·h/mL; in [9] (single dose 750 mg), 1070 ng·h/mL; in [9] (single dose 1500 mg), 1444 ng·h/mL; in data set [9] (single dose 3000 mg), 2669 ng·h/mL; in [9] (single dose 4500 mg) it was 3215 ng·h/mL; in [9] (single dose 6000 mg), 3696 ng·h/mL. Further, the bioavailability – broadly, dose-corrected exposure relative to a reference, in per cent – in data set [11] (200 mg) was 100%; in data set [11] (750 mg) it was 57%; in [11] (1500 mg) it was 39%; in data set [11] (3000 mg), 36%; in data set [11] (4500 mg), 29%; in data set [11] (6000 mg) it was 25%.

In the case of `Cc1c(OCC(F)(F)F)ccnc1C[S+]([O-])c1nc2ccccc2[nH]1` (stereo not drawn) [Lansoprazole], the “Inhibition of CBD metabolism (in words)” value in data set [3] is reported as “effective inhibitors of CBD metabolism”. Besides, half-maximal inhibition in [1] (IC50 at 15 min) required 20 µM.

`COc1ccc2[nH]c(S(=O)(=O)Cc3ncc(C)c(OC)c3C)nc2c1` [Omeprazole Sulphone]: in data set [3], the IC50 is > 33 µM.

As to `COc1ccc2[nH]c([S+]([O-])Cc3ncc(C)c(OC)c3C)nc2c1` (stereo not drawn) [Omeprazole], in [1], the IC50 at 15 min was > 33 µM.
